# Assay results reported in patent US7371741B2, “Estradiol derivatives and pharmaceutical compositions using same” (EntreMed, Inc., priority 2003, dated 2008).
# Tested on: PC3: prostate cancer
# Assay: In vitro anti-proliferative activity, BrdU incorporation, PC3
# Format: cell-based
# Settings: Homo sapiens, PC-3; PC3 cells, 50% inhibition of proliferation, BrdU incorporation into DNA
# Experimental: (§1) Determination of in vitro anti-proliferative activity of substituted estradiol analogs: In vitro anti-proliferative or anti-mitogenic activity was determined using a commercially available cell-based assay in 96-well tissue culture plates with assessment of proliferation by evaluating DNA synthesis through incorporation into DNA of immuno-reactive (BrdU) nucleotides. The cell types used are commercially available (MDA-MB-231: breast cancer; U87-MG: glioblastoma; PC3: prostate cancer; HUVEC: non-transformed early passage human umbilical vein endothelial cells). These assays, and the many assay variations possible to determine in vitro anti-proliferative or anti-mitogenic activity, are well known to those skilled in the art. The concentration which causes 50% inhibition of proliferation (IC50) was estimated from a dose-response curve generally carried out with a range of concentrations from ≧100 microg/mL to ≦0.01 microg/mL.
row,Structure (SMILES),IC50
1,CC#Cc1cc2c(cc1O)CCC1C2CC[C@@]2(C)C1CC[C@@H]2O (some centres unmarked) [Compound 3],2.22 ± 0.13 µM
2,"COc1cc2c(cc1O)CC[C@@H]1[C@@H]2CC[C@]2(C)C(=O)CC[C@@H]12 [Compound 4, 2-methoxyestra-1,3,5(10)-trien-3-ol-17-one, reference compound]",13.7 µM
3,"COc1cc2c(cc1O)CC[C@@H]1[C@@H]2CC[C@]2(C)CCC[C@@H]12 [Compound 7, 2-methoxyestra-1,3,5(10)-triene-3-ol]",8.49 ± 2.49 µM
4,"COc1cc2c(cc1O)CC[C@@H]1[C@@H]2CC[C@]2(C)[C@@H](C)CC[C@@H]12 [Compound 16, 2-methoxy-17β-methylestra-1,3,5(10)-triene-3-ol]",6.46 ± 2.31 µM
5,"C=Cc1cc2c(cc1OC)[C@H]1CC[C@]3(C)C(=O)CC[C@H]3[C@@H]1CC2 [Compound 25, 2-methoxy-3-(vinyl)estra-1,3,5(10)-triene-17-one]",1.43 ± 0.4 µM
6,"C=Cc1cc2c(cc1OC)[C@H]1CC[C@]3(C)[C@@H](O)CC[C@H]3[C@@H]1CC2 [Compound 25a, 2-methoxy-3-(vinyl)estra-1,3,5(10)-triene-17β-ol]",6.34 ± 0.08 µM
7,"COc1cc2c(cc1N)CC[C@@H]1[C@@H]2CC[C@]2(C)C(=O)CC[C@@H]12 [Compound 34, 3-amino-2-methoxyestra-1,3,5(10)-trien-17-one]",> 100 µM
8,"CCOc1cc2c(cc1N)CC[C@@H]1[C@@H]2CC[C@]2(C)C(=O)CC[C@@H]12 [Compound 35, 3-Amino-2-ethoxyestra-1,3,5(10)-trien-17-one]",9.25 ± 1.58 µM
9,"COc1cc2c(cc1F)CC[C@@H]1[C@@H]2CC[C@]2(C)C(=O)CC[C@@H]12 [Compound 40, 3-fluoro-2-methoxyestra-1,3,5(10)-trien-17-one]",9.26 ± 0.73 µM
10,"C=Cc1cc2c(cc1OC)[C@H]1CC[C@]3(C)CCC[C@H]3[C@@H]1CC2 [Compound 52, 3-Vinyl-2-methoxyestra-1,3,5(10)-triene]",2.12 ± 0.64 µM
11,"COc1cc2c(cc1N)CC[C@@H]1[C@@H]2CC[C@]2(C)CCC[C@@H]12 [Compound 61, 3-amino-2-methoxyestra-1,3,5(10)-triene]",8.63 ± 0.18 µM
12,"C=C1CC[C@H]2[C@@H]3CCc4cc(C(N)=O)c(OC)cc4[C@H]3CC[C@]12C [Compound 82, 2-Methoxy-17-methyleneestra-1,3,5(10)-triene-3-carboxamide]",0.25 ± 0.01 µM
13,"C=C1CC[C@H]2[C@@H]3CCc4cc(N)c(OC)cc4[C@H]3CC[C@]12C [Compound 85, 3-amino-17-methylene-2-methoxyestra-1,3,5(10)-triene]",2.4 ± 0.39 µM

# Same assay, conditions: PC3 cells, 50% inhibition of proliferation, BrdU incorporation into DNA
row,Structure (SMILES),IC50
1,"CC=C1CCC2C3CCc4cc(O)c(OC)cc4C3CCC12C (centres unmarked) [Compound 13, 2-Methoxy-19-norpregna-1,3,5(10)17(20)-tetraene-3-ol]",1.15 ± 0.4 µM

# Tested on: U87-MG: glioblastoma
# Assay: In vitro anti-proliferative activity, BrdU incorporation, U87-MG
# Format: cell-based
# Settings: Homo sapiens, U-87 MG; U87-MG cells, 50% inhibition of proliferation, BrdU incorporation into DNA
# Experimental: as §1
row,Structure (SMILES),IC50
1,CC#Cc1cc2c(cc1O)CCC1C2CC[C@@]2(C)C1CC[C@@H]2O (some centres unmarked) [Compound 3],2.68 ± 0.22 µM
2,"COc1cc2c(cc1O)CC[C@@H]1[C@@H]2CC[C@]2(C)C(=O)CC[C@@H]12 [Compound 4, 2-methoxyestra-1,3,5(10)-trien-3-ol-17-one, reference compound]",10.5 µM
3,"COc1cc2c(cc1O)CC[C@@H]1[C@@H]2CC[C@]2(C)CCC[C@@H]12 [Compound 7, 2-methoxyestra-1,3,5(10)-triene-3-ol]",7.35 ± 0.43 µM
4,"COc1cc2c(cc1O)CC[C@@H]1[C@@H]2CC[C@]2(C)[C@@H](C)CC[C@@H]12 [Compound 16, 2-methoxy-17β-methylestra-1,3,5(10)-triene-3-ol]",9.39 ± 0.43 µM
5,"C=Cc1cc2c(cc1OC)[C@H]1CC[C@]3(C)C(=O)CC[C@H]3[C@@H]1CC2 [Compound 25, 2-methoxy-3-(vinyl)estra-1,3,5(10)-triene-17-one]",2.2 ± 0.06 µM
6,"C=Cc1cc2c(cc1OC)[C@H]1CC[C@]3(C)[C@@H](O)CC[C@H]3[C@@H]1CC2 [Compound 25a, 2-methoxy-3-(vinyl)estra-1,3,5(10)-triene-17β-ol]",7.81 ± 1.3 µM
7,"COc1cc2c(cc1N)CC[C@@H]1[C@@H]2CC[C@]2(C)C(=O)CC[C@@H]12 [Compound 34, 3-amino-2-methoxyestra-1,3,5(10)-trien-17-one]",81.5 ± 20.4 µM
8,"CCOc1cc2c(cc1N)CC[C@@H]1[C@@H]2CC[C@]2(C)C(=O)CC[C@@H]12 [Compound 35, 3-Amino-2-ethoxyestra-1,3,5(10)-trien-17-one]",26.1 ± 1.4 µM
9,"COc1cc2c(cc1F)CC[C@@H]1[C@@H]2CC[C@]2(C)C(=O)CC[C@@H]12 [Compound 40, 3-fluoro-2-methoxyestra-1,3,5(10)-trien-17-one]",26 ± 3.38 µM
10,"C=Cc1cc2c(cc1OC)[C@H]1CC[C@]3(C)CCC[C@H]3[C@@H]1CC2 [Compound 52, 3-Vinyl-2-methoxyestra-1,3,5(10)-triene]",3.14 ± 0.52 µM
11,"COc1cc2c(cc1N)CC[C@@H]1[C@@H]2CC[C@]2(C)CCC[C@@H]12 [Compound 61, 3-amino-2-methoxyestra-1,3,5(10)-triene]",10.2 ± 3.78 µM
12,"C=C1CC[C@H]2[C@@H]3CCc4cc(C(N)=O)c(OC)cc4[C@H]3CC[C@]12C [Compound 82, 2-Methoxy-17-methyleneestra-1,3,5(10)-triene-3-carboxamide]",0.25 ± 0.02 µM
13,"C=C1CC[C@H]2[C@@H]3CCc4cc(N)c(OC)cc4[C@H]3CC[C@]12C [Compound 85, 3-amino-17-methylene-2-methoxyestra-1,3,5(10)-triene]",5.51 ± 0.46 µM

# Same assay, conditions: U87-MG cells, 50% inhibition of proliferation, BrdU incorporation into DNA
row,Structure (SMILES),IC50
1,"CC=C1CCC2C3CCc4cc(O)c(OC)cc4C3CCC12C (centres unmarked) [Compound 13, 2-Methoxy-19-norpregna-1,3,5(10)17(20)-tetraene-3-ol]",2.37 ± 0.34 µM

# Tested on: MDA-MB-231: breast cancer
# Assay: In vitro anti-proliferative activity, BrdU incorporation, MDA-MB-231
# Format: cell-based
# Settings: Homo sapiens; MDA-MB-231 cells, 50% inhibition of proliferation, BrdU incorporation into DNA
# Experimental: as §1
row,Structure (SMILES),IC50
1,CC#Cc1cc2c(cc1O)CCC1C2CC[C@@]2(C)C1CC[C@@H]2O (some centres unmarked) [Compound 3],3.99 ± 1.12 µM
2,"COc1cc2c(cc1O)CC[C@@H]1[C@@H]2CC[C@]2(C)C(=O)CC[C@@H]12 [Compound 4, 2-methoxyestra-1,3,5(10)-trien-3-ol-17-one, reference compound]",11.7 µM
3,"COc1cc2c(cc1O)CC[C@@H]1[C@@H]2CC[C@]2(C)CCC[C@@H]12 [Compound 7, 2-methoxyestra-1,3,5(10)-triene-3-ol]",2.2 ± 0.52 µM
4,"COc1cc2c(cc1O)CC[C@@H]1[C@@H]2CC[C@]2(C)[C@@H](C)CC[C@@H]12 [Compound 16, 2-methoxy-17β-methylestra-1,3,5(10)-triene-3-ol]",3.33 ± 0.23 µM
5,"C=Cc1cc2c(cc1OC)[C@H]1CC[C@]3(C)C(=O)CC[C@H]3[C@@H]1CC2 [Compound 25, 2-methoxy-3-(vinyl)estra-1,3,5(10)-triene-17-one]",2.57 ± 0.29 µM
6,"C=Cc1cc2c(cc1OC)[C@H]1CC[C@]3(C)[C@@H](O)CC[C@H]3[C@@H]1CC2 [Compound 25a, 2-methoxy-3-(vinyl)estra-1,3,5(10)-triene-17β-ol]",8.93 ± 0.61 µM
7,"COc1cc2c(cc1N)CC[C@@H]1[C@@H]2CC[C@]2(C)C(=O)CC[C@@H]12 [Compound 34, 3-amino-2-methoxyestra-1,3,5(10)-trien-17-one]",46.9 ± 8.15 µM
8,"CCOc1cc2c(cc1N)CC[C@@H]1[C@@H]2CC[C@]2(C)C(=O)CC[C@@H]12 [Compound 35, 3-Amino-2-ethoxyestra-1,3,5(10)-trien-17-one]",10.6 ± 2.98 µM
9,"COc1cc2c(cc1F)CC[C@@H]1[C@@H]2CC[C@]2(C)C(=O)CC[C@@H]12 [Compound 40, 3-fluoro-2-methoxyestra-1,3,5(10)-trien-17-one]",2.94 ± 0.8 µM
10,"C=Cc1cc2c(cc1OC)[C@H]1CC[C@]3(C)CCC[C@H]3[C@@H]1CC2 [Compound 52, 3-Vinyl-2-methoxyestra-1,3,5(10)-triene]",1.86 ± 0.22 µM
11,"COc1cc2c(cc1N)CC[C@@H]1[C@@H]2CC[C@]2(C)CCC[C@@H]12 [Compound 61, 3-amino-2-methoxyestra-1,3,5(10)-triene]",7.62 ± 0.43 µM
12,"C=C1CC[C@H]2[C@@H]3CCc4cc(C(N)=O)c(OC)cc4[C@H]3CC[C@]12C [Compound 82, 2-Methoxy-17-methyleneestra-1,3,5(10)-triene-3-carboxamide]",0.19 ± 0.08 µM
13,"C=C1CC[C@H]2[C@@H]3CCc4cc(N)c(OC)cc4[C@H]3CC[C@]12C [Compound 85, 3-amino-17-methylene-2-methoxyestra-1,3,5(10)-triene]",2.11 ± 0.57 µM

# Same assay, conditions: MDA-MB-231 cells, 50% inhibition of proliferation, BrdU incorporation into DNA
row,Structure (SMILES),IC50
1,"CC=C1CCC2C3CCc4cc(O)c(OC)cc4C3CCC12C (centres unmarked) [Compound 13, 2-Methoxy-19-norpregna-1,3,5(10)17(20)-tetraene-3-ol]",2.63 ± 0.2 µM

# Tested on: HUVEC: non-transformed early passage human umbilical vein endothelial cells
# Assay: In vitro anti-proliferative activity, BrdU incorporation, HUVEC
# Format: cell-based
# Settings: 50% inhibition of proliferation, BrdU incorporation into DNA
# Experimental: as §1
row,Structure (SMILES),IC50
1,"CC=C1CCC2C3CCc4cc(O)c(OC)cc4C3CCC12C (centres unmarked) [Compound 13, 2-Methoxy-19-norpregna-1,3,5(10)17(20)-tetraene-3-ol]",0.37 ± 0.08 µM

# Same assay, conditions: Homo sapiens, 50% inhibition of proliferation, BrdU incorporation into DNA
row,Structure (SMILES),IC50
1,CC#Cc1cc2c(cc1O)CCC1C2CC[C@@]2(C)C1CC[C@@H]2O (some centres unmarked) [Compound 3],0.52 ± 0.14 µM
2,"COc1cc2c(cc1O)CC[C@@H]1[C@@H]2CC[C@]2(C)C(=O)CC[C@@H]12 [Compound 4, 2-methoxyestra-1,3,5(10)-trien-3-ol-17-one, reference compound]",12.6 µM
3,"COc1cc2c(cc1O)CC[C@@H]1[C@@H]2CC[C@]2(C)CCC[C@@H]12 [Compound 7, 2-methoxyestra-1,3,5(10)-triene-3-ol]",1.32 ± 0.56 µM
4,"COc1cc2c(cc1O)CC[C@@H]1[C@@H]2CC[C@]2(C)[C@@H](C)CC[C@@H]12 [Compound 16, 2-methoxy-17β-methylestra-1,3,5(10)-triene-3-ol]",2.4 ± 0.45 µM
5,"C=Cc1cc2c(cc1OC)[C@H]1CC[C@]3(C)C(=O)CC[C@H]3[C@@H]1CC2 [Compound 25, 2-methoxy-3-(vinyl)estra-1,3,5(10)-triene-17-one]",0.58 ± 0.01 µM
6,"C=Cc1cc2c(cc1OC)[C@H]1CC[C@]3(C)[C@@H](O)CC[C@H]3[C@@H]1CC2 [Compound 25a, 2-methoxy-3-(vinyl)estra-1,3,5(10)-triene-17β-ol]",1.96 ± 0.05 µM
7,"COc1cc2c(cc1N)CC[C@@H]1[C@@H]2CC[C@]2(C)C(=O)CC[C@@H]12 [Compound 34, 3-amino-2-methoxyestra-1,3,5(10)-trien-17-one]",23.4 ± 4.14 µM
8,"CCOc1cc2c(cc1N)CC[C@@H]1[C@@H]2CC[C@]2(C)C(=O)CC[C@@H]12 [Compound 35, 3-Amino-2-ethoxyestra-1,3,5(10)-trien-17-one]",16.5 ± 2.02 µM
9,"COc1cc2c(cc1F)CC[C@@H]1[C@@H]2CC[C@]2(C)C(=O)CC[C@@H]12 [Compound 40, 3-fluoro-2-methoxyestra-1,3,5(10)-trien-17-one]",2.1 ± 0.23 µM
10,"C=Cc1cc2c(cc1OC)[C@H]1CC[C@]3(C)CCC[C@H]3[C@@H]1CC2 [Compound 52, 3-Vinyl-2-methoxyestra-1,3,5(10)-triene]",0.58 ± 0.04 µM
11,"COc1cc2c(cc1N)CC[C@@H]1[C@@H]2CC[C@]2(C)CCC[C@@H]12 [Compound 61, 3-amino-2-methoxyestra-1,3,5(10)-triene]",6.43 ± 1.32 µM
12,"C=C1CC[C@H]2[C@@H]3CCc4cc(C(N)=O)c(OC)cc4[C@H]3CC[C@]12C [Compound 82, 2-Methoxy-17-methyleneestra-1,3,5(10)-triene-3-carboxamide]",0.12 ± 0.06 µM
13,"C=C1CC[C@H]2[C@@H]3CCc4cc(N)c(OC)cc4[C@H]3CC[C@]12C [Compound 85, 3-amino-17-methylene-2-methoxyestra-1,3,5(10)-triene]",1 ± 0.19 µM
